This is an account of results in ChEMBL document CHEMBL1131348, “Pyrazolo[1,5-a]pyrimidine CRF-1 receptor antagonists” (Bioorg Med Chem Lett, 1998).

The structures appear in SMILES notation.

The target in the assay is T1, Corticotropin-releasing factor receptor 1 (Homo sapiens, UniProt P34998).
T1 sequence (P34998 whole entry): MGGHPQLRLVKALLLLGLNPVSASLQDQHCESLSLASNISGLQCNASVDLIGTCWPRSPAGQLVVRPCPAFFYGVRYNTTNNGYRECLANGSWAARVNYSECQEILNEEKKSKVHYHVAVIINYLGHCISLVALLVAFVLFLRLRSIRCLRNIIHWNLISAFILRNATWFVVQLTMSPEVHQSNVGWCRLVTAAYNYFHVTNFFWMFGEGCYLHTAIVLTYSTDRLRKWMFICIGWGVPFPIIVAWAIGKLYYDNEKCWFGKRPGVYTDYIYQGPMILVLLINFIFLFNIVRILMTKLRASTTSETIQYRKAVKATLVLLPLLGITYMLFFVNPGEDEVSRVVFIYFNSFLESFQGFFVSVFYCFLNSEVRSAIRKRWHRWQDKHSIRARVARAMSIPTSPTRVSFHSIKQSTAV
The experiment in a line: Displacement of [125I]0-CRF from human Corticotropin releasing factor receptor 1 expressed in CHO cells. It counts as cell-based.
In the case of `Cc1cc(N2CCOCC2)n2nc(C)c(-c3ccc(Cl)cc3Cl)c2n1`, the Ki (usually a measure of affinity in units of concentration, obtained from inhibition or displacement) was 310 nM.

`CCN(CCOC)c1cc(C)nc2c(-c3ccc(Cl)cc3Cl)c(C)nn12` had a Ki of 11 nM.

For `CCCCNc1cc(C)nc2c(-c3ccc(Cl)cc3Cl)c(C)nn12`, affinity was put at a Ki of 69 nM.

For the molecule `CCCN(CC1CC1)c1cc(C)nc2c(-c3ccc(Cl)cc3Cl)c(C)nn12`, the Ki turned out to be 3.2 nM.

In turn, `CCCCN(CC)c1cc(C)nc2c(-c3ccc(Cl)cc3Cl)c(C)nn12` yielded a Ki of 5 nM.

In turn, `CCCCN(CC)c1cc(C)nc2c(-c3ccc(Cl)cc3)c(C)nn12` came in with a Ki of 77 nM.

Molecule `CCCCN(CC)c1cc(C)nc2c(-c3c(Cl)cc(Cl)cc3Cl)c(C)nn12` had a Ki of 93 nM.

In the case of `CCCCN(CC)c1nc(C)nc2c1c(C)cn2-c1c(C)cc(C)cc1C` [CP-154526], the Ki turned out to be 56 nM.

Turning to `CCCC1CCCCN1c1cc(C)nc2c(-c3ccc(Cl)cc3Cl)c(C)nn12` (centres undefined), the Ki turned out to be 6.4 nM.

For `CCCCN(CC)c1cc(C)nc2c(-c3ccc(Cl)cc3Cl)cnn12`, the Ki was 40 nM.

`CCCCN(OC)c1cc(C)nc2c(-c3ccc(Cl)cc3Cl)c(C)nn12` came in with a Ki of 216 nM.

For the molecule `CCCCN(CC)c1cc(C)nc2c(-c3ccccc3)c(C)nn12`, affinity was put at a Ki of 511 nM.

In the case of `Cc1cc(N2CCCCC2)n2nc(C)c(-c3ccc(Cl)cc3Cl)c2n1`, the affinity corresponds to a Ki of 41 nM.

For `CCCCN(CC)c1cc(C)nc2c(-c3ccccc3Cl)c(C)nn12`, the inhibitory constant (Ki) amounted to 15 nM.
